The values below are quoted from earlier work in paper PMC6675714 (Cancer Medicine, 2019).

One data set has as its system advanced stages of CCRCC. The note with it: chemo‐monotherapies; cited from earlier work.
In a further data set the test system is Caki‐1 tumor. The note with it: cited from earlier work; for T/C (tumor growth): same xenograft mice model (Caki‐1, NMRI:nu/nu).
In another data set the test system is A431 tumor. On the set-up: method as in PMID 28959398. The note with it: A431 tumor‐bearing female BALB/cA.Cg‐Foxn1^nu/CrINarI; cited from earlier work.
The next data set has as its system H‐Ras/Raf‐1 interaction. On the set-up: method as in PMID 28959398. Conditions: cited from earlier work.
The mark [1] stands for this setting: Caki‐1 tumor‐bearing female NMRI:nu/nu mice.

Read-outs that look alike come from different tables or passages of the source.

As for `O=c1[nH]cc(F)c(=O)[nH]1` [5‐FU], in the data set on advanced stages of CCRCC, the Response rate is about 20% and the Survival is given as 15 months.

Regarding `CC(=O)OCC1OC([S][Au-][c]2n(Cc3ccccc3)c(-c3ccccc3)c(-c3ccccc3)[n+]2Cc2ccccc2)C(OC(C)=O)C(OC(C)=O)C1OC(C)=O` (centres unmarked) [NHC‐AuSR], the “T/C (tumor growth)” value in the data set with Caki‐1 tumor is 47%. Moreover, in the data set on Caki‐1 tumor (same xenograft mice model), the Side effects result is reported as “no severe side effects” and the “ki‐67 or CD31 markers” value is on record as “no decrease”.

Regarding `[Cl][Au-][c]1n(Cc2ccccc2)c(-c2ccccc2)c(-c2ccccc2)[n+]1Cc1ccccc1` [NHC‐Au‐Cl], in the data set on Caki‐1 tumor, the “T/C (tumor growth)” value was 47%. In the data set with Caki‐1 tumor (same xenograft mice model), the Side effects result is “no severe side effects” and the “ki‐67 or CD31 markers” value is on record as “no decrease”.

For the compound `CCN(CC)c1ccc(C[c-]2cccc2)cc1.CCN(CC)c1ccc(C[c-]2cccc2)cc1.[Cl][Ti+2][Cl]` [Titanocene Y*], in the data set with Caki‐1 tumor (setting [1]), the Side effects entry is “no severe side effects”. Moreover, in the data set on Caki‐1 tumor (Caki‐1 xenograft), the “Reduction of proliferation marker ki‐67” value is on record as 21%, the Vascularization result was “decreased vascularization” and the Weight loss entry is “dose‐dependent weight loss”.

As for `COc1ccc(C[c-]2cccc2)cc1.COc1ccc(C[c-]2cccc2)cc1.[Cl][V+2][Cl]` [Vanadocene Y], the Side effects entry with Caki‐1 tumor (setting [1]) was “no severe side effects”.

For the compound `CCCCCOC(=O)Nc1nc(=O)n([C@@H]2O[C@H](C)[C@@H](O)[C@H]2O)cc1F` [capecitabine], in the data set on advanced stages of CCRCC, the Response rate is reported as about 20% and the Survival was 15 months.

[Ir(tpy)(dnbpy)]: the Tumor growth entry with A431 tumor is “tumor growth inhibition”. Further, the “H‐Ras/Raf‐1 interaction” value with H‐Ras/Raf‐1 interaction is given as “inhibiting”.
